{
  "source": "patent US20080107619A1",
  "about": "“Carbohydrate based cellulase inhibitors as feeding stimulants in termites” (University of Florida Research Foundation, Inc., priority 2006, published 2008)",
  "key": {"endoglucanase": {"biological_target": "endoglucanase", "experiment": "In vitro endoglucanase inhibition, CMC assay (I50 determination)", "format": "biochemical, R. flavipes", "details": "foregut/salivary gland/midgut (endogenous) and hindgut (symbiotic) fractions, FIG. 4", "experimental": "(§1) Gut dissections were carried out for cellulase distribution and inhibition studies. For dissections, termites were immobilized on ice, decapitated, and the entire digestive tract removed through a small incision made in the abdominal exoskeleton. For cellulase distribution studies, dissected guts were divided into three regions: (i) salivary gland+foregut, (ii) midgut and (iii) hindgut. For inhibition studies, guts were divided into two major components that included: (i) foregut, salivary gland and midgut, and (ii) hindgut. […]\n(§2) Cellulase activity assays were adapted from Han et al. in “Characterization of a bifunctional cellulase and its structural gene,” J. Biol. Chem. 270 (1995) 26012-26019, with optimization for a 96-well microplate format. […] Color was allowed to develop on ice for 15 min before measuring absorbance at 540 nm relative to a glucose standard curve.\nThe efficacy of the three carbohydrate-based cellulase inhibitors CBI (FIG. 1D), FMG (FIG. 1E) and FMCB (FIG. 1F) was tested against two different gut enzyme sources that included (i) endogenous termite cellulases from salivary gland, foregut and midgut, and (ii) symbiotic cellulases from the hindgut. […] Percent inhibition was calculated relative to methanol controls. […]"}, "exoglucanase": {"biological_target": "exoglucanase", "experiment": "In vitro exoglucanase inhibition, pNPC assay (I50 determination)", "format": "biochemical, R. flavipes", "details": "foregut/salivary gland/midgut (endogenous) and hindgut (symbiotic) fractions, FIG. 4", "experimental": "as §1, §2\n(§3) The hydrolysis product of both the pNPC and pNPG substrates is p-nitrophenol, which is yellow in color and permits for direct quantification of activity in a kinetic assay. pNPC and pNPG assays were initially incubated at 32° C. for 20 min before measuring the release of the product, p-nitrophenol, at 420 nm. The absorbance of reactions was read every 2 min for 1 hr and activity was determined based on rate of absorbance change. […]"}, "β-glucosidase": {"biological_target": "β-glucosidase", "experiment": "In vitro β-glucosidase inhibition, pNPG assay (I50 determination)", "format": "biochemical, R. flavipes", "details": "foregut/salivary gland/midgut (endogenous) and hindgut (symbiotic) fractions, FIG. 4", "experimental": "as §1, §2, §3"}, "[1]": {"biological_target": "T1, Cel7A cellobiohydrolase (exoglucanase) (Trichoderma reesei, UniProt P62694)", "T1 sequence (P62694 18-513)": "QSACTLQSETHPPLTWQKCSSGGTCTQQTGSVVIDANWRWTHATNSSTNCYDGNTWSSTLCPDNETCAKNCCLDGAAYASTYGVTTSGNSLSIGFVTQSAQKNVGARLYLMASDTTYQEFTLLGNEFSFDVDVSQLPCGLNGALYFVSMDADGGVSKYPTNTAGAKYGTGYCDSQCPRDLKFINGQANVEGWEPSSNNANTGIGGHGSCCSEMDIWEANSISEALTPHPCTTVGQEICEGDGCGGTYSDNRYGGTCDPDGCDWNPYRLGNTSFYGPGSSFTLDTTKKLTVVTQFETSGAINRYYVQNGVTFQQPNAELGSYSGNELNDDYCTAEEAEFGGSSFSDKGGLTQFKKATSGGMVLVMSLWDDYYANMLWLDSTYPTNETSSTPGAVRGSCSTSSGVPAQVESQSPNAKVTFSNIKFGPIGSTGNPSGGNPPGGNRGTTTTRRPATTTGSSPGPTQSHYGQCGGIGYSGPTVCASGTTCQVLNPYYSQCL", "details": "non-competitive inhibition; Vonhoff et al.; read-out: I50; cited from earlier work"}, "Cel5A enzyme": {"biological_target": "T2, Cel5A enzyme (Salipaludibacillus agaradhaerens, UniProt O85465)", "T2 sequence (O85465 27-400)": "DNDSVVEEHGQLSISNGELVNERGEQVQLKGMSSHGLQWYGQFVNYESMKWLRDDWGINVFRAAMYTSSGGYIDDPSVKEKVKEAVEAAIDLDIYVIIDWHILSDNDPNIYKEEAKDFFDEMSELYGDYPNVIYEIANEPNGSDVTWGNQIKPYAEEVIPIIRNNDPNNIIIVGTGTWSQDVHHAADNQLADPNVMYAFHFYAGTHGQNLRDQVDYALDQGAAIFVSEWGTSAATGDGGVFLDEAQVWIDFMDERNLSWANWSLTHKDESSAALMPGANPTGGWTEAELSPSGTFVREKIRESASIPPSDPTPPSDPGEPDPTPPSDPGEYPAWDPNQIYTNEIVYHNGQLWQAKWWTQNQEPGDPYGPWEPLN", "details": "Varrott et al.; read-out: I50 value; cited from earlier work"}},
  "data": [
    {"compound": "OC[C@@H]1[C@@H](O[C@@H]2O[C@H](CO)[C@@H](O)[C@H](O)[C@H]2O)[C@H](O)[C@@H](O)c2nccn21", "note": "[CBI, cellobioimidazole]", "values": [
      {"measurement": "I50 against endoglucanase activity", "setting": "endoglucanase", "value": "virtually no activity"},
      {"measurement": "I50 against exoglucanase activity", "setting": "exoglucanase", "value": "I50s in the nM-μM range"},
      {"measurement": "I50 against β-glucosidase activity", "setting": "β-glucosidase", "value": "I50s in the nM-μM range"},
      {"measurement": "IC50", "setting": "[1]", "value": 130, "unit": "µM"},
      {"measurement": "IC50", "setting": "Cel5A enzyme", "value": 88, "unit": "µM"}
    ]},
    {"compound": "fluoromethyl glucose [FMG]", "values": [
      {"measurement": "I50 against endoglucanase activity", "setting": "endoglucanase", "value": "virtually no inhibitory properties"},
      {"measurement": "I50 against exoglucanase activity", "setting": "exoglucanase", "value": "virtually no inhibitory properties"},
      {"measurement": "I50 against β-glucosidase activity", "setting": "β-glucosidase", "value": "virtually no inhibitory properties"}
    ]}
  ]
}
